Reference: publication PMC10008561 (Nature Communications, 2023)
“And” between values parts separate entries of the source, which are not always exact repeats. Equal entries are not always repeated. Where two headings read alike, the source gives them in different places.

Experiments:
human KOR (Gustducin) [1] = details: cited from earlier work
human KOR (Gi1) = biological target: T1, human KOR (Gi1) (Homo sapiens, UniProt P41145); test: cell-based
T1 construct: expressed in transfected cells; host or cells: HEK293T

human KOR (Gi2) = biological target: T2, human KOR (Gi2) (Homo sapiens, UniProt P41145); test: cell-based; details: HEK-293T
T2 construct: expressed in transfected cells; host or cells: HEK293T

human KOR (Gi3) = biological target: T3, human KOR (Gi3) (Homo sapiens, UniProt P41145); test: cell-based; details: HEK-293T
T3 construct: expressed in transfected cells; host or cells: HEK293T

human KOR (GoA) = biological target: T4, human KOR (GoA) (Homo sapiens, UniProt P41145); test: cell-based; details: HEK-293T
T4 construct: expressed in transfected cells; host or cells: HEK293T

human KOR (GoB) = biological target: T5, human KOR (GoB) (Homo sapiens, UniProt P41145); test: cell-based; details: HEK-293T
T5 construct: expressed in transfected cells; host or cells: HEK293T

human KOR (Gz) = biological target: T6, human KOR (Gz) (Homo sapiens, UniProt P41145); test: cell-based; details: HEK-293T
T6 construct: expressed in transfected cells; host or cells: HEK293T

human KOR (Gustducin) [2] = biological target: T7, human KOR (Gustducin) (Homo sapiens, UniProt P41145); test: cell-based
T7 construct: expressed in transfected cells; host or cells: HEK293T

human KOR (β-arrestin 1) = biological target: T8, human KOR (β-arrestin 1) (Homo sapiens, UniProt P41145); test: cell-based; details: HEK-293T
T8 construct: expressed in transfected cells; host or cells: HEK293T

human KOR (β-arrestin 2) = biological target: T9, human KOR (β-arrestin 2) (Homo sapiens, UniProt P41145); test: cell-based; details: HEK-293T
T9 construct: expressed in transfected cells; host or cells: HEK293T

human KOR [3] = biological target: T10, human KOR (Homo sapiens, UniProt P41145); test: cell-based
human KOR [4] = biological target: T11, human KOR (Homo sapiens, UniProt P41145, Q115N); test: cell-based; details: HEK-293T
T11 construct: expressed in transfected cells; host or cells: HEK 293T (ATCC, CRL-3216)

human KOR [5] = biological target: T12, human KOR (Homo sapiens, UniProt P41145, W287A); test: cell-based; details: HEK-293T
T12 construct: expressed in transfected cells; host or cells: HEK 293T (ATCC, CRL-3216)

human KOR [6] = biological target: T10, human KOR; test: cell-based; remark: listed apart in the source
human KOR [7] = biological target: T11, human KOR; test: cell-based; details: HTLA
human KOR [8] = biological target: T12, human KOR; test: cell-based; details: HTLA
KOR [9] = assay type: cell-based, human
KOR [10] = test: Bias factor, Gz vs β-arrestin2 (BRET), U50,488 as reference; assay type: cell-based, human
human KOR [11] = biological target: T10, human KOR; test: cell-based; parameters: expressed in transfected cells; host or cells: HEK 293T (ATCC, CRL-3216); details: HEK-293T
human KOR [12] = biological target: T10, human KOR; test: cell-based; parameters: expressed in transfected cells; host or cells: HEK 293T (ATCC, CRL-3216); details: HTLA
KOR Q115N [13] = biological target: T13, KOR Q115N (Homo sapiens, UniProt P41145, Q115N); test: cell-based; parameters: expressed in transfected cells; host or cells: HEK 293T (ATCC, CRL-3216); details: read-out: cAMP response (Figure S4C), KOR Q115N, Log [Drug], replicate values
Target sequence in this assay (P41145 whole entry Q115N): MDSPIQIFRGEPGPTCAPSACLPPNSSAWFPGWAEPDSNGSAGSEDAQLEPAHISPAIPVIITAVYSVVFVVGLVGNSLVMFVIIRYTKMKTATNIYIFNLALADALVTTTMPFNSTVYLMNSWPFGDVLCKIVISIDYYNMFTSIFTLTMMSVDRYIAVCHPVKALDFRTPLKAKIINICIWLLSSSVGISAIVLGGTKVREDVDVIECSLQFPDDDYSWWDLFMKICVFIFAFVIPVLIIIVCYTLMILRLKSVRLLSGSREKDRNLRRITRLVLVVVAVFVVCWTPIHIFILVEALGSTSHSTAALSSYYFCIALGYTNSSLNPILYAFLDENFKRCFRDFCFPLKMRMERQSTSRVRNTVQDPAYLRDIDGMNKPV

KOR Q115N [14] = biological target: T13, KOR Q115N; test: cell-based; parameters: TEV cleavage site (C); tTA transcription factor (C); expressed in transfected cells; host or cells: HTLA cells; details: read-out: Tango response (Figure S4C), KOR Q115N, Log [Drug], replicate values
Target sequence in this assay (P41145 whole entry Q115N): as above
Target sequence in this assay (P32121 whole entry partner): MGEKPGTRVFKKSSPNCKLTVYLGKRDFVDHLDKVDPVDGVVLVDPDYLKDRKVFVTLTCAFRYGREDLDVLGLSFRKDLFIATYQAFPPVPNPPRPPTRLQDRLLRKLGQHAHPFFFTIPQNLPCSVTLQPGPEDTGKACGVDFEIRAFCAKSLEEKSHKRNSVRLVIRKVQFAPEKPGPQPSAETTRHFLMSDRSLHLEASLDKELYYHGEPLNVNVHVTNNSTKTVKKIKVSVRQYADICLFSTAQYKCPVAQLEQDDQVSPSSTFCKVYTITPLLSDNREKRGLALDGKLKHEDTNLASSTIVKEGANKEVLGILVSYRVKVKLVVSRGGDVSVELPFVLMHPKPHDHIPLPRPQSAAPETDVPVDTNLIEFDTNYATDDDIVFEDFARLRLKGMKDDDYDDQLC

[15] = read-out: Gz (Figure 5A concentration-response, replicate values)
[16] = read-out: βArrestin1 (Figure 5A concentration-response, replicate values)
[17] = read-out: cAMP response (Figure S4C)
[18] = read-out: Tango response (Figure S4C)

T10 sequence (P41145 whole entry): as the sequence (P41145 whole entry Q115N) above, with N115Q counted along it
T8 sequence (P41145 whole entry): as the sequence (P41145 whole entry Q115N) above, with N115Q counted along it
T6 sequence (P41145 whole entry): as the sequence (P41145 whole entry Q115N) above, with N115Q counted along it
T11 sequence (P41145 whole entry Q115N): as the sequence (P41145 whole entry Q115N) above
T7 sequence (P41145 whole entry): as the sequence (P41145 whole entry Q115N) above, with N115Q counted along it
T1 sequence (P41145 whole entry): as the sequence (P41145 whole entry Q115N) above, with N115Q counted along it
T12 sequence (P41145 whole entry W287A): as the sequence (P41145 whole entry Q115N) above, with N115Q, W287A counted along it
T5 sequence (P41145 whole entry): as the sequence (P41145 whole entry Q115N) above, with N115Q counted along it
T9 sequence (P41145 whole entry): as the sequence (P41145 whole entry Q115N) above, with N115Q counted along it
T4 sequence (P41145 whole entry): as the sequence (P41145 whole entry Q115N) above, with N115Q counted along it
T2 sequence (P41145 whole entry): as the sequence (P41145 whole entry Q115N) above, with N115Q counted along it
T3 sequence (P41145 whole entry): as the sequence (P41145 whole entry Q115N) above, with N115Q counted along it

dynorphin A 1–13
activity at Gustducin (human KOR (Gustducin) [1]): nearly inactive

COC(=O)N1CCN(C(=O)Cc2ccc(Cl)c(Cl)c2)C2C(N3CCCC3)CCCC21 (centres unmarked) [WMS-X600]
Emax% (human KOR (Gi1)): 101.3% | Emax (human KOR (Gi1); HEK-293T): 84 ± 8% | Emax (human KOR (Gi2)): 99.3% | Emax (human KOR (Gi3)): 99.2% | Emax (human KOR (GoA)): 99.8% | Emax (human KOR (GoB)): 99.2% | Emax (human KOR (Gz)): 97.7% | activation at 0.001 µM (human KOR (Gz); [15]): 86.2% | activation at 0.01 µM (human KOR (Gz); [15]): 100% | activation at 0.1 µM (human KOR (Gz); [15]): 101% | activation at 1 µM (human KOR (Gz); [15]): 95.2% | activation at 10 µM (human KOR (Gz); [15]): 97.8% | Emax% (human KOR (Gustducin) [2]): 94% | Emax (human KOR (Gustducin) [2]; HEK-293T): 93.6% | Emax (human KOR (β-arrestin 1)): 93.8% | activation at 0.01 µM (human KOR (β-arrestin 1); [16]): 33.5% | activation at 1 µM (human KOR (β-arrestin 1); [16]): 86.2% | activation at 10 µM (human KOR (β-arrestin 1); [16]): 91.8% | Emax (human KOR (β-arrestin 2)): 102 ± 6% | increase of potency for G protein signaling (human KOR [3]): 10 fold | loss of potency in G protein activation (human KOR [3]): 82 fold | Emax (human KOR [4]): 103 ± 1% | Emax (human KOR [5]): 98 ± 5% | increase of potency for arrestin signaling (human KOR [6]): 5 fold | loss of potency in arrestin recruitment (human KOR [6]): 232 fold | Emax (human KOR [7]): 110 ± 6% | Emax (human KOR [8]): 108 ± 7% | ΔΔLog τ/KA (95% confidence interval) (KOR [9]): 1 (0.81-1.19) | bias factor towards arrestin pathway (KOR [10]): 8.6 | Emax (human KOR [11]): 95 ± 3% | activation at 31.62 pM (human KOR [11]; [17]): 34.2% | activation at 0.0001 µM (human KOR [11]; [17]): 56.7% | activation at 0.001 µM (human KOR [11]; [17]): 78.9% | activation at 0.01 µM (human KOR [11]; [17]): 101% | activation at 0.1 µM (human KOR [11]; [17]): 103% | activation at 1 µM (human KOR [11]; [17]): 91.1% | activation at […] (human KOR [11]; [17]): 68.9% and 97.5% and 102% and 90.6% | Emax (human KOR [12]): 96 ± 5% | activation at 0.001 µM (human KOR [12]; [18]): 78.7% | activation at 0.1 µM (human KOR [12]; [18]): 116% | activation at 1 µM (human KOR [12]; [18]): 112% | activation at 10 µM (human KOR [12]; [18]): 123% | activation at […] (human KOR [12]; [18]): 43.5% and 72.6% and 125% | activation at 1 µM (KOR Q115N [13]; M -6): 99.1% | activation at […] (KOR Q115N [13]; M -6.5): 107% | activation at 0.1 µM (KOR Q115N [13]; M -7): 105% | activation at […] (KOR Q115N [13]; M -7.5): 104% | activation at 0.01 µM (KOR Q115N [13]; M -8): 103% | activation at […] (KOR Q115N [13]; M -8.5): 100% | activation at 0.001 µM (KOR Q115N [13]; M -9): 97.8% | activation at […] (KOR Q115N [13]; M -9.5): 101% | activation at 0.0001 µM (KOR Q115N [13]; M -10): 92.8% | activation at 31.62 pM (KOR Q115N [13]; M -10.5): 81.3% | activation at 10 pM (KOR Q115N [13]; M -11): 56.3% | activation at 3.162 pM (KOR Q115N [13]; M -11.5): 33.3% | activation at 10 µM (KOR Q115N [14]; M -5): 120% | activation at […] (KOR Q115N [14]; M -5.5): 124% | activation at 1 µM (KOR Q115N [14]; M -6): 123% | activation at […] (KOR Q115N [14]; M -6.5): 107% | activation at 0.1 µM (KOR Q115N [14]; M -7): 112% | activation at 0.01 µM (KOR Q115N [14]; M -8): 116% | activation at […] (KOR Q115N [14]; M -9.5): 72.6% | activation at 0.0001 µM (KOR Q115N [14]; M -10): 78.7% | activation at 31.62 pM (KOR Q115N [14]; M -10.5): 43.5%
